This is an account of results in patent US20100173872A1, “Method and Composition for Treating Alzheimer's Disease and Dementias of Vascular Origin” (THE BOARD OF TRUSTEES OF THE UNIVERSITY OF ILLINOIS, priority 2002, published 2010).

Bridge positions count the residues as written; N and C are the ends. Square brackets hold non-standard residues; d marks the D form. Ends that are not written are not given here. Peptide text beside a SMILES is read from it.

One experiment concerns ET receptor. As to conditions: cited from earlier work; for effect of pretreatment on systemic hemodynamic and regional circulatory effects of ET-1: BQ123 10 μg ICV, centrally administered ET-1; for effect on hemodynamics or regional blood circulation: specific ETB receptor agonists, separate experiments.
Experiment [1] is described as follows: Effect of ET-1 infusion on brain blood flow in control and Aβ-treated rats. It is filed as in vivo, rat. Conditions: 30 minutes infusion; Aβ-treated vs control rats. The method, then:
Studies in 3-month-old rats to determine the effect of Aβ on systemic hemodynamics and regional blood circulation were performed. […] The effect of ET-1 on the brain blood flow of control and Aβ treated rats also was determined (FIG. 4).
Once infusion was stopped, a rebound increase in blood flow was observed. It can be inferred that Aβ increased the endogenous concentration of ET-1, leading to vasoconstriction. Accordingly, the administration of an ET-1 antagonist can cause a rebound increase in blood flow.

Experiment [2] concerns sympathetic nerve activity. As to conditions: ET-1 90 ng; cited from earlier work.

Consider `CC(C)C[C@@H]1NC(=O)[C@@H](C(C)C)NC(=O)[C@@H]2CCCN2C(=O)[C@@H](CC(=O)O)NC(=O)[C@@H](Cc2c[nH]c3ccccc23)NC1=O` [BQ123, cyclo(-D-Trp-D-Asp-Pro-D-Val-Leu-)] (cyclo(L[dW][dD]P[dV])), for which the “effect of pretreatment on systemic hemodynamic and regional circulatory effects of ET-1” value in the experiment with ET receptor was “blocked”.

As to `CC(C)NCC(O)COc1cccc2ccccc12` (stereo not drawn) [propranolol], in the experiment on ET receptor, the “effect of pretreatment on systemic hemodynamic and regional circulatory effects of ET-1” value is reported as “blocked”.

As for “ET-1: endothelin-1, a potent cerebrovascular vasoconstrictor peptide; ETA receptor agonist (CSCSSLMDKECVYFCHLDIIW; disulfide 1-15, 3-11; ends not checked; UniProt P05305 53-73, looked up)”, in the experiment with ET receptor (45 ng ICV), the “cardiac output and stroke volume” value is listed as “significant decreases”; the total peripheral resistance result was “remained unchanged”. In addition, in experiment [1], the “effect of ET-1 infusion on brain blood flow” value is recorded as “more marked in Aβ-treated rats”. Moreover, in experiment [2], the sympathetic nerve activity result was “significantly decreased”.

“ET-2: ETA receptor agonist (CSCSSWLDKECVYFCHLDIIW; disulfide 1-15, 3-11; ends not checked; UniProt P20800 49-69, looked up)”: in the experiment on ET receptor (ET-2 90 ng ICV), the “intensity of effects in comparison to ET-1 and SRT6b” value is recorded as “less intense”.

Turning to ET-3: specific ETB receptor agonist, the “effect on hemodynamics or regional blood circulation” value with ET receptor is reported as “did not affect”.

For the compound sarafotoxin 6c, in the experiment with ET receptor, the “effect on hemodynamics or regional blood circulation” value is “did not affect”.
